{"source": "patent US20220409569A1", "about": "“Cannabinoid Products with High Bioavailability” (The Chemist's Cabinet, LLC, priority 2019, published 2022)", "origin": "cited, not measured here", "conditions": "oral administration"}
{"molecule": "C=C(C)[C@@H]1CCC(C)=C[C@H]1c1c(O)cc(CCCCC)cc1O", "note": "[CBD, cannabidiol]", "values": [{"measurement": "bioavailability", "value": "~6", "unit": "%"}]}
{"molecule": "CCCCCc1cc(O)c2c(c1)OC(C)(C)[C@@H]1CCC(C)=C[C@@H]21", "note": "[THC, tetrahydrocannabinol]", "values": [{"measurement": "bioavailability", "value": "4%-12%"}]}
